Tests used:
[1] = system: HT-29 colon adenocarcinoma cells; test: Apoptosis by DNA fragmentation assay in HT-29; type: cell-based, human; settings: qualitative activity profile; further: key: −: Not active; +: Slightly active; ++: Moderately active; +++: Strongly active; ++++: Highly active
[2] = system: cGMP and cAMP levels in HT-29 cells; test: Cyclic nucleotide levels in cultured cells by radioimmunoassay; type: cell-based, human; settings: HT-29 cells treated 30 minutes
[3] = system: PDE4 purified from human colon HT-29 cultured tumor cells; test: PDE4 inhibition assay; type: biochemical; settings: HT-29 cell enzyme
[4] = target: T1, purified cyclooxygenase (Type 1, COX-I) from ram seminal vesicles (Ovis aries, UniProt P05979); test: COX inhibition assay, purified cyclooxygenase; type: biochemical
T1 construct: using purified cyclooxygenase from ram seminal vesicles as described previously; tissue Cayman Chemical, Ann Arbor, Mich; (named in the general protocol only); host or cells: ram seminal vesicles
T1 sequence (P05979 25-600): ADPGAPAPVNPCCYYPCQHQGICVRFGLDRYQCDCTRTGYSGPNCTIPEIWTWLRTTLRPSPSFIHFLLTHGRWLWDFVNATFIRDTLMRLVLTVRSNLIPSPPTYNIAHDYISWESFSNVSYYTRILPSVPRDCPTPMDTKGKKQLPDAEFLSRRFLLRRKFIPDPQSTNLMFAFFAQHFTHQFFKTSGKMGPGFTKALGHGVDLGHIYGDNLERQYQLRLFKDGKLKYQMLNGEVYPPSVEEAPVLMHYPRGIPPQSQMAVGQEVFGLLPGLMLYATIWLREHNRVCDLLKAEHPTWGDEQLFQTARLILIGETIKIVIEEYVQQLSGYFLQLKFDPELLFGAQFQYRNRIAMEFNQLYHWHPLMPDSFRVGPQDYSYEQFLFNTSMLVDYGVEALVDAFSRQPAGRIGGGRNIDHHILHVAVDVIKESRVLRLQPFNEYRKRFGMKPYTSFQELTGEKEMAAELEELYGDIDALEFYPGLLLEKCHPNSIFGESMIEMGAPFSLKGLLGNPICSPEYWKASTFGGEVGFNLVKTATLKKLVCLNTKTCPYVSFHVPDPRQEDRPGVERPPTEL

[5] = target: T2, cGMP binding sites of the GST-cGB-PDE5 protein (Homo sapiens, UniProt O76074); test: cGMP binding assay with GST-cGB-PDE5 fusion protein; settings: 3H-cGMP 2 μM
T2 construct: made in house; host or cells: E. coli BL21 (DE3)

A-427, Lung = test: Growth inhibition, SRB assay, A-427; type: cell-based
From the text: (§1) A compound's ability to inhibit tumor cell growth can be measured using the HT-29 human colon carcinoma cell line obtained from ATCC. HT-29 cells have previously been characterized as a relevant colon tumor cell culture model (Fogh, J., and Trempe, G. In: Human Tumor Cells in Vitro, J. Fogh (eds.), Plenum Press, New York, pp. 115-159, 1975). HT-29 cells are maintained in RPMI media supplemented with 5% fetal bovine calf serum (Gemini Bioproducts, Inc., Carlsbad, Calif.) and 2 mm glutamine, and 1% antibiotic-antimycotic in a humidified atmosphere of 95% air and 5% CO2 at 37° C. Briefly, HT-29 cells are plated at a density of 500 cells/well in 96 well microtiter plates and incubated for 24 hours at 37° C. prior to the addition of compound. […] After six days in culture, the cells are fixed by the addition of cold trichloroacetic acid to a final concentration of 10% and protein levels are measured using the sulforhodamine B (SRB) colorimetric protein stain assay as previously described by Skehan, P., Storeng, R., Scudiero, D., Monks, A., McMahon, J., Vistica, D., Warren, J. T., Bokesch, H., Kenney, S., and Boyd, M. R., “New Colorimetric Assay For Anticancer-Drug Screening,” J. Natl. Cancer Inst. […]
(§2) To show the effectiveness of this screening method on various forms of neoplasia, compounds were tested on numerous cell lines. […] The IC50 values were determined by the SRB assay. […]

HCT116, Colon = test: Growth inhibition, SRB assay, HCT116; type: cell-based
From the text: as §1, §2

UACC375, Melanoma = test: Growth inhibition, SRB assay, UACC375; type: cell-based
From the text: as §1, §2

[6] = system: premalignant lesions in mouse mammary gland organ culture; test: Mammary gland organ culture model; type: cell-based; on mammary gland organ culture: key: −: Not active; +: Slightly active; ++: Moderately active; +++: Strongly active; ++++: Highly active
From the text: Test compounds identified by the above methods can be tested for antineoplastic activity by their ability to inhibit the incidence of pre-neoplastic lesions in a mammary gland organ culture system. This mouse mammary gland organ culture technique has been successfully used by other investigators to study the effects of known antineoplastic agents such as certain NSAIDs, retinoids, tamoxifen, selenium, and certain natural products, and is useful for validation of the screening method of the present invention.
For example, female BALB/c mice can be treated with a combination of estradiol and progesterone daily, in order to prime the glands to be responsive to hormones in vitro. The animals are sacrificed, and thoracic mammary glands are excised aseptically and incubated for ten days in growth media supplemented with insulin, prolactin, hydrocortisone, and aldosterone. DMBA (7,12-dimethylbenz(a)anthracene) is added to medium to induce the formation of premalignant lesions. Fully developed glands are then deprived of prolactin, hydrocortisone, and aldosterone, resulting in the regression of the glands but not the pre-malignant lesions.
The test compound is dissolved in DMSO and added to the culture media for the duration of the culture period. At the end of the culture period, the glands are fixed in 10% formalin, stained with alum carmine, and mounted on glass slides. The incidence of forming mammary lesions is the ratio of the glands with mammary lesions to […]. The incidence of mammary lesions in test compound treated glands is compared with that of the untreated glands.
The extent of the area occupied by the mammary lesions can be quantitated by projecting an image of the gland onto a digitation pad. The area covered by the gland is traced on the pad and considered as 100% of the area. The space covered by each of the non-regressed structures is also outlined on the digitization pad and quantitated by the computer.
Mammary gland organ culture experiment were performed as previously described (Mehta and Moon, Cancer Research, 46: 5832-5835, 1986). […] The data support the hypothesis that cyclooxygenase inhibition is not necessary for the anti-neoplastic properties of desired compounds.

[7] = target: T3, PDE peak A (PDE5) from SW480 cells (Homo sapiens, UniProt O76074); test: cGMP hydrolysis inhibition, PDE peak A from SW480; type: biochemical; settings: cGMP hydrolysis, 0.25 μM 3H-cGMP
T3 construct: endogenous in cells; host or cells: SW480 colon cancer cells, DEAE-Trisacryl M fraction

[8] = system: Bronchial Epithelial Cells; test: Growth inhibition, SRB assay, bronchial epithelial cells; type: cell-based
From the text: as §1, §2

[9] = system: cGMP PDE purified from human colon HT-29 cultured tumor cells; test: cGMP PDE inhibition assay; type: biochemical

5-fluoro-2-methyl-1-(p-methylsulfinylbenzylidene)-3-indenylacetic acid [Sulindac sulfide]
Apoptosis [1]: +++ | effect on cAMP levels [2]: unaffected | increase of cGMP levels [2]: greater than 50% | EC50 ([2]; read-out: EC50 for increase of cGMP): 7.3 µM | IC50 [3]: 41 µM | Cyclooxygenase inhibitory activity, % Inhibition at 100 μM ([4]; 100 μM): 97% | COX Inhibition ([4]; qualitative activity profile): ++++ | competition with cGMP in binding of GST-cGB-PDE5 [5]: do not bind to the cGMP binding sites of PDE5 | IC50 (A-427, Lung): 90 µM | IC50 (HCT116, Colon): 45 µM | IC50 (UACC375, Melanoma): 50 µM | inhibition of the formation of premalignant lesions ([6]; mammary gland organ culture): inactive | Mammary Gland Organ Culture ([6]; qualitative activity profile): − | IC50 [7]: 50 µM | IC50 [8]: 30 µM | cGMP PDE inhibitory activity, % Inhibition at 10 μM ([9]; 10 μM): 97% | PDE Inhibition ([9]; qualitative activity profile): +++ | IC50 ([9]; read-out: IC50 for inhibition of cGMP PDE, HT-29 cell enzyme): 17 µM

Reference: patent US20030109418A1, “Methods for identifying compounds for inhibition of neoplastic lesions, and pharmaceutical compositions containing such compounds” (priority 1999, published 2003)
